Test results published in patent US4861760A, “Ophthalmological composition of the type which undergoes liquid-gel phase transition” (Merck & Co., Inc., priority 1985, dated 1989).

Tests used:
[1] = compatibility / gelling effect of ingredients in Gelrite solution; format: physicochemical; conditions: 0.1 mg/ml added; can be eliminated by adding a small amount of acetic acid
eye = conditions: rabbit, in vivo

Substance	gelling effect in a Gelrite solution [1]	eye irritation (eye)
benzalkonium chloride	slight gelling effect	
gellan gum		not regarded as an eye irritant
